From patent US4495199A, “Dioxolanic amine with pharmacological activity, its method of preparation, the pharmaceutical compositions containing same and their use in human medicine” (priority 1982, dated 1985)
Structures can show the parent of a compound that is named as a salt.

Experiments:
[1] = test system: fibrillation by chloroform in the male NMRI mouse; experiment: Anti-arrhythmic activity, fibrillation by chloroform in the mouse, p.o.; assay type: in vivo
Text: Tables 5 and 6 show the anti-arrythmic activity of the ITA 362 in the male NMRI mouse by oral and intraperitoneal route using the fibrillation test by chloroform in the mouse. (V. W. Lawson, J. Pharmacol. Exp. Ther. 160, 22, 1968; B. Vargaftig, J. L. Coignet. Eur.J. Pharmacol. 6, 49, 1969).
The activity of the two forms of maleate described in the example 4 were studied, with that in the table subtitled as isomer A corresponding to the first fraction obtained in the aforementioned example, and isomer B corresponding to the second fraction.

[2] = Hygroscopicity; assay type: physicochemical
[3] = test system: rat; experiment: Acute toxicity, oral, rat; assay type: in vivo
Description: (§1) The respective lethal dose 50 was calculated according to the method of Litchfield and Wilcoxon (Jl. Pharmacol. Exptl. 96 99, 1949).

[4] = test system: mouse; experiment: Acute toxicity, oral, mouse; assay type: in vivo
Description: as §1

[5] = test system: T wave in the conscious dog; experiment: Anti-angina activity, amplitude increase protection of the T wave by vasopression in the conscious dog; assay type: in vivo
Text: The antiangina activity was also compared with that of the nitroglycerine by means of the amplitude increase protection test of the T wave for vasopression in the conscious dog. (A. Lindner, M. London, G. Werner, Scheiz. Med. Wsohr. 83, 360, 1953; J. Papp. L. Szekeres. Arch. Int. Pharmacodyn, 160, 1, 1966).

[6] = test system: hindquarters of rats; experiment: Vasodilatory activity, perfusion of the hindquarters of rats with a hyperpotasemic solution; design: species or system rat; conditions: summary statement
Text: In the Table 3 is shown the results of the vasodilatory activity of the ITA 362 in the perfusion test of the hindquarters of rats with a hyperpotasemic solution. (F. N. Fastier, F. M. Smirk. Jl, Pharmacolog. Exp. Therapy. 89. 256, 1947).

In the case of `CCCCNCC1COC(c2ccc(Cl)cc2)(c2cc3ccccc3o2)O1` (single isomer, unassigned) [ITA 362 maleate (isomer A)], the ED50 ([1]; Mus musculus, po, read-out: ED50 and confidence limits p < 0.05, p.o., dose column in mg/kg) is reported as 35.4 mg/kg.

For `CCCCNCC1COC(c2ccc(Cl)cc2)(c2cc3ccccc3o2)O1` (stereo not drawn) [ITA 362 citrate], the “% protection versus fibrillation” value ([1]; 3.125 mg/kg p.o.) was 10% and the hygroscopicity [2] was “highly hydroscopic”.

For `CCCCNCC1COC(c2ccc(Cl)cc2)(c2cc3ccccc3o2)O1` (stereo not drawn) [ITA 362 maleate, 2-(2'-benzofuranil)-4-butylaminomethyl-2-p-chlorophenyl-1,3-dioxolane, maleate], the LD50 ([3]; rat, oral) was > 4000 mg/kg and the LD50 [4] was > 4000 mg/kg.

With `CCCCNCC1COC(c2ccc(Cl)cc2)(c2cc3ccccc3o2)O1` (stereo not drawn) [ITA 362, 2-(2'-benzofuranil)-4-n-butylaminomethyl-2-p-chlorophenyl-1,3-dioxolan] the “Antiangina activity relative to nitroglycerine” value ([5]; 1 mg/kg i.v. vs nitroglycerine 0.4 mg/kg) was “greater than that of nitroglycerine”, the “anti-angina activity (in words)” value ([5]; summary statement) was “intense” and the “anti-arrhythmic activity (in words)” value ([1]; summary statement) was “intense”. The “toxicity (in words)” value ([3]; summary statement, species not specified) was “low toxicity” and the “vasodilatory activity (in words)” value [6] was “intense”.

For `O=[N+]([O-])OCC(CO[N+](=O)[O-])O[N+](=O)[O-]` [Nitroglycerine, reference compound], the “quot. Control/treatment” value ([5]; 0.4 mg/kg i.v.) was 1.520 and the “% Prot.” value ([5]; 0.4 mg/kg i.v., t student n.s.) was 28.9%.
